These results are taken from patent US20250312499A1, “KISSPEPTIN RECEPTOR (KISS1R) TARGETED THERAPEUTICS AND USES THEREOF” (priority 2024, published 2025).

Numbered stars: 1 amine (or outer) side, 2 acyl side, 3 side chain; on linkers, the order of the positions; unused ones are H or OH. Square brackets hold non-standard residues; d marks the D form. Peptide text beside a SMILES is read from it. * marks the point of attachment. DOTA = O=C(O)CN1CCN(CC(=O)O)CCN(CC(=O)*)CCN(CC(=O)O)CC1; Gly(N-(3-F-4-Me-benzyl)) = Cc1ccc(CNCC(=O)*)cc1F; Butanoyl(4-(4-I-phenyl)) = O=C(CCCc1ccc(I)cc1)*; Bpa = N[C@@H](Cc1ccc(C(=O)c2ccccc2)cc1)C(=O)O; Api(1-amidino) = N=C(N)N1CCC(N)(C(=O)O)CC1; Hydrocinnamoyl(4-I) = O=C(CCc1ccc(I)cc1)*; HO(CH2CH2O)2CH2CH2CO = O=C(CCOCCOCCO)*; Phe(3-F) = N[C@@H](Cc1cccc(F)c1)C(=O)O; d2Nal = N[C@H](Cc1ccc2ccccc2c1)C(=O)O; X1 = O=C(CN1CCC(N[*:1])CC1)[*:2]; 4Pal = N[C@@H](Cc1ccncc1)C(=O)O; Cha = N[C@@H](CC1CCCCC1)C(=O)O; 4Amb = NCc1ccc(C(=O)O)cc1; Api = NC1(C(=O)O)CCNCC1; PEG2 = NCCOCCOCCC(=O)O; Ahx = NCCCCCC(=O)O; azaGly = NNC(=O)O; Sar = CNCC(=O)O

The experiment concerns the target human kisspeptin receptor (Homo sapiens (Human), UniProt Q969F8). As to the kind of experiment: Human KISS1R binding assay (membrane competition binding). As to conditions: 90 min at room temperature; competition with 0.2 nM [125I]-metastin (45-54); Flp-In T-Rex 293 kisspeptin membranes; metal complexes nonradioactive Ga, In, Lu; read-out: hKiSSR Binding Ki (90 min). The method, boiled down:
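Membranes from tetracycline-induced (48 h) Flp-In T-Rex 293 cells expressing receptor, 5–10 μg, incubated 90 min at room temperature with 0.2 nM [125I]-metastin (45-54) and competitor (typically 0–10,000 nM) in Tris/Mg/Ca/EGTA/0.1% BSA, pH 7.4. Filtration, washing, counting; Ki by non-linear regression.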

Chain of human kisspeptin receptor (Q969F8 whole entry): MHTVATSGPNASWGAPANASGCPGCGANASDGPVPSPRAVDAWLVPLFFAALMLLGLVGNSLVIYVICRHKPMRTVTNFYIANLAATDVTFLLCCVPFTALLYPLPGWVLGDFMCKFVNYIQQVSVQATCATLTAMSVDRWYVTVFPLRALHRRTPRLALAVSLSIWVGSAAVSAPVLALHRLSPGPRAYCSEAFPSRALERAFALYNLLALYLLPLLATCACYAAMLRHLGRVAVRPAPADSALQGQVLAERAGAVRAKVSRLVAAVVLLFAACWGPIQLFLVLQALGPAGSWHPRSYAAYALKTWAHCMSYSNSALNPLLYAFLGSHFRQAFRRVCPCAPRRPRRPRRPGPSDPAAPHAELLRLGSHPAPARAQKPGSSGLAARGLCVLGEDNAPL

`Cc1ccc(CNCC(=O)N2CCC(NC(=O)[C@H](CC(C)C)NC(=O)NNC(=O)[C@H](Cc3ccccc3)NC(=O)[C@@H](NC(=O)[C@H](CC(N)=O)NC(=O)c3ccc(CNC(=O)CN4CCN(CC(=O)O)CCN(CC(=O)O)CCN(CC(=O)O)CC4)cc3)[C@@H](C)O)(C(=O)N[C@@H](Cc3ccc(O)cc3)C(N)=O)CC2)cc1F` [Compound 205] ({DOTA-4Amb}-NTF[azaGly]L[Api](Gly(N-(3-F-4-Me-benzyl)))Y-NH2): the Ki is below 10 nM. The figure for `Cc1ccc(CNCC(=O)N2CCC(NC(=O)[C@H](CC(C)C)NC(=O)NNC(=O)[C@H](Cc3ccncc3)NC(=O)[C@@H](NC(=O)[C@H](CC(N)=O)NC(=O)CN3CCC(NC(=O)CN4CCN(CC(=O)O)CCN(CC(=O)O)CCN(CC(=O)O)CC4)CC3)[C@@H](C)O)(C(=O)N[C@@H](Cc3ccncc3)C(N)=O)CC2)cc1F` [Compound 258] ({DOTA}-[X1]NT[4Pal][azaGly]L[Api](Gly(N-(3-F-4-Me-benzyl)))[4Pal]-NH2) is above 100 nM; for `Cc1ccc(CNCC(=O)N2CCC(NC(=O)c3ccc(-c4ccccc4)c(OCCNNC(=O)[C@H](Cc4ccccc4)NC(=O)CCCCCNC(=O)CN4CCN(CC(=O)O)CCN(CC(=O)O)CCN(CC(=O)O)CC4)c3)(C(=O)N[C@@H](Cc3c[nH]c4ccccc34)C(N)=O)CC2)cc1F` [Compound 280] it is above 100 nM; for `Cc1ccc(CNCC(=O)N2CCC(NC(=O)[C@H](CC(C)C)N3CC(NC(=O)[C@H](Cc4ccccc4)NC(=O)CCCCCNC(=O)CN4CCN(CC(=O)O)CCN(CC(=O)O)CCN(CC(=O)O)CC4)C3)(C(=O)N[C@@H](Cc3c[nH]c4ccccc34)C(N)=O)CC2)cc1F` [Compound 139] it is 10 to 100 nM. The figure for `Cc1ccc(CNCC(=O)N2CCC(NC(=O)[C@H](CC(C)C)NC(=O)NNC(=O)[C@H](Cc3cccc(F)c3)NC(=O)[C@@H](NC(=O)[C@H](CC(N)=O)NC(=O)[C@H](Cc3c[nH]c4ccccc34)NC(=O)[C@@H](Cc3ccc(O)cc3)NC(=O)CCCCCNC(=O)CN3CCN(CC(=O)O)CCN(CC(=O)O)CCN(CC(=O)O)CC3)[C@@H](C)O)(C(=O)N[C@@H](Cc3c[nH]c4ccccc34)C(N)=O)CC2)cc1F` [Compound 35] ({DOTA-Ahx}-[dY]WNT[Phe(3-F)][azaGly]L[Api](Gly(N-(3-F-4-Me-benzyl)))W-NH2) is below 10 nM; for `Cc1ccc(CNCC(=O)N2CCC(NC(=O)[C@H](CC(C)C)NC(=O)NNC(=O)[C@H](Cc3ccccc3)NC(=O)[C@@H](NC(=O)[C@H](CCCCNC(=O)CN3CCN(CC(=O)O)CCN(CC(=O)O)CCN(CC(=O)O)CC3)NC(=O)CCOCCOCCO)[C@@H](C)O)(C(=O)N[C@@H](Cc3ccncc3)C(N)=O)CC2)cc1F` [Compound 251] ({HO(CH2CH2O)2CH2CH2CO}-K(DOTA)TF[azaGly]L[Api](Gly(N-(3-F-4-Me-benzyl)))[4Pal]-NH2) it is above 100 nM. The value for `CC(C)C[C@H](NC(=O)NNC(=O)[C@H](Cc1ccccc1)NC(=O)[C@@H](NC(=O)[C@H](CC(N)=O)NC(=O)[C@@H](Cc1ccc2ccccc2c1)NC(=O)[C@@H](Cc1ccc(O)cc1)NC(=O)CCCCCNC(=O)CN1CCN(CC(=O)O)CCN(CC(=O)O)CCN(CC(=O)O)CC1)[C@@H](C)O)C(=O)NC1(C(=O)N[C@H](Cc2c[nH]c3ccccc23)C(N)=O)CCNCC1` [Compound 339] ({DOTA-Ahx}-[dY][d2Nal]NTF[azaGly]L[Api][dW]-NH2) was below 10 nM; that for `CC(C)C[C@H](NC(=O)NNC(=O)[C@H](Cc1ccccc1)NC(=O)[C@@H](NC(=O)[C@H](CC(N)=O)NC(=O)[C@@H](Cc1ccc2ccccc2c1)NC(=O)[C@@H](Cc1ccc(O)cc1)NC(=O)CCOCCOCCNC(=O)CCc1ccc(I)cc1)[C@@H](C)O)C(=O)NC1(C(=O)N[C@@H](Cc2ccc(O)cc2)C(N)=O)CCN(C(=N)N)CC1` [Compound 397] ({Hydrocinnamoyl(4-I)-PEG2}-[dY][d2Nal]NTF[azaGly]L[Api(1-amidino)]Y-NH2) was below 10 nM. With `Cc1ccc(CNCC(=O)N2CCC(NC(=O)[C@H](CC(C)C)NC(=O)NNC(=O)[C@H](Cc3ccccc3)NC(=O)[C@@H](NC(=O)[C@H](CC(N)=O)NC(=O)NNC(=O)[C@@H](Cc3ccc(O)cc3)NC(=O)CCCCCNC(=O)CN3CCN(CC(=O)O)CCN(CC(=O)O)CCN(CC(=O)O)CC3)[C@@H](C)O)(C(=O)N[C@@H](Cc3c[nH]c4ccccc34)C(N)=O)CC2)cc1F` [Compound 108] ({DOTA-Ahx}-[dY][azaGly]NTF[azaGly]L[Api](Gly(N-(3-F-4-Me-benzyl)))W-NH2), the Ki is below 10 nM. In the case of `Cc1ccc(CNCC(=O)N2CCC(NC(=O)[C@H](CC(C)C)NC(=O)NNC(=O)[C@H](Cc3ccccc3)NC(=O)[C@@H](NC(=O)[C@H](CCC(=O)O)NC(=O)[C@H](CCCCNC(=O)CN3CCN(CC(=O)O)CCN(CC(=O)O)CCN(CC(=O)O)CC3)NC(=O)CCOCCOCCO)[C@@H](C)O)(C(=O)N[C@@H](Cc3ccncc3)C(N)=O)CC2)cc1F` [Compound 252] ({HO(CH2CH2O)2CH2CH2CO}-K(DOTA)ETF[azaGly]L[Api](Gly(N-(3-F-4-Me-benzyl)))[4Pal]-NH2), the inhibition constant (Ki) was above 100 nM. The value for `CC(C)C[C@H](NC(=O)NNC(=O)[C@H](Cc1ccccc1)NC(=O)[C@@H](NC(=O)[C@H](CC(N)=O)NC(=O)[C@@H](Cc1c[nH]c2ccccc12)NC(=O)[C@@H](Cc1ccc(O)cc1)NC(=O)c1ccc(CNC(=O)CCCCCNC(=O)CN2CCN(CC(=O)O)CCN(CC(=O)O)CCN(CC(=O)O)CC2)cc1)[C@@H](C)O)C(=O)NC1(C(=O)N[C@@H](Cc2c[nH]c3ccccc23)C(N)=O)CCN(C(=N)N)CC1` [Compound 270] ({DOTA-Ahx-4Amb}-[dY][dW]NTF[azaGly]L[Api(1-amidino)]W-NH2) was below 10 nM. The figure for `Cc1ccc(CNCC(=O)N2CCC(NC(=O)[C@H](CC(C)C)NC(=O)NNC(=O)[C@H](Cc3ccccc3)NC(=O)[C@@H](NC(=O)[C@H](CC(N)=O)NC(=O)CN3CCC(NC(=O)CN4CCN(CC(=O)O)CCN(CC(=O)O)CCN(CC(=O)O)CC4)CC3)[C@@H](C)O)(C(=O)N[C@@H](Cc3ccc(O)cc3)C(N)=O)CC2)cc1F` [Compound 249] ({DOTA}-[X1]NTF[azaGly]L[Api](Gly(N-(3-F-4-Me-benzyl)))Y-NH2) is below 10 nM; for `Cc1ccc(CNCC(=O)N2CCC(NC(=O)[C@H](CC(C)C)NC(=O)NNC(=O)[C@H](Cc3ccccc3)NC(=O)CCCCCNC(=O)CN3CCN(CC(=O)O)CCN(CC(=O)O)CCN(CC(=O)O)CC3)(C(=O)N[C@@H](Cc3c[nH]c4ccccc34)C(N)=O)CC2)cc1F` [Compound 2] ({DOTA-Ahx}-F[azaGly]L[Api](Gly(N-(3-F-4-Me-benzyl)))W-NH2) it is below 10 nM; for `CNCC(=O)N1CCC(NC(=O)[C@H](CC(C)C)NC(=O)NNC(=O)[C@H](Cc2ccccc2)NC(=O)[C@@H](NC(=O)[C@H](CC(N)=O)NC(=O)[C@@H](Cc2ccc3ccccc3c2)NC(=O)[C@@H](Cc2ccc(O)cc2)NC(=O)CCCc2ccc(I)cc2)[C@@H](C)O)(C(=O)N[C@@H](Cc2ccc(O)cc2)C(N)=O)CC1` [Compound 399] ({Butanoyl(4-(4-I-phenyl))}-[dY][d2Nal]NTF[azaGly]L[Api](Sar)Y-NH2) it is below 10 nM.

With `Cc1ccc(CNCC(=O)N2CCC(NC(=O)[C@H](CC(C)C)NC(=O)NNC(=O)[C@H](Cc3ccccc3)NC(=O)CCCCCNC(=O)CN3CCN(CC(=O)O)CCN(CC(=O)O)CCN(CC(=O)O)CC3)(C(=O)N[C@@H](CC3CCCCC3)C(N)=O)CC2)cc1F` [Compound 141] ({DOTA-Ahx}-F[azaGly]L[Api](Gly(N-(3-F-4-Me-benzyl)))[Cha]-NH2), the Ki is 10 to 100 nM. As to `Cc1ccc(CNCC(=O)N2CCC(NC(=O)[C@H](CC(C)C)NC(=O)NNC(=O)[C@H](Cc3ccccc3)NC(=O)CN3CCC(NC(=O)CN4CCN(CC(=O)O)CCN(CC(=O)O)CCN(CC(=O)O)CC4)CC3)(C(=O)N[C@@H](Cc3c[nH]cn3)C(N)=O)CC2)cc1F` [Compound 248] ({DOTA}-[X1]F[azaGly]L[Api](Gly(N-(3-F-4-Me-benzyl)))H-NH2), the Ki is above 100 nM. The figure for `CC(C)C[C@H](NC(=O)CNC(=O)[C@H](Cc1ccccc1)NC(=O)CCCCCNC(=O)CN1CCN(CC(=O)O)CCN(CC(=O)O)CCN(CC(=O)O)CC1)C(=O)NC1(C(=O)N[C@@H](Cc2c[nH]c3ccccc23)C(N)=O)CCN(C(=N)N)CC1` [Compound 3] ({DOTA-Ahx}-FGL[Api(1-amidino)]W-NH2) is above 100 nM; for `CNCC(=O)N1CCC(NC(=O)[C@H](CC(C)C)NC(=O)NNC(=O)[C@H](Cc2ccccc2)NC(=O)[C@@H](NC(=O)[C@H](CC(N)=O)NC(=O)[C@H](Cc2ccc(C(=O)c3ccccc3)cc2)NC(=O)[C@@H](Cc2ccc(O)cc2)NC(=O)CCCCCNC(=O)CN2CCN(CC(=O)O)CCN(CC(=O)O)CCN(CC(=O)O)CC2)[C@@H](C)O)(C(=O)N[C@@H](Cc2c[nH]c3ccccc23)C(N)=O)CC1` [Compound 346] ({DOTA-Ahx}-[dY][Bpa]NTF[azaGly]L[Api](Sar)W-NH2) it is below 10 nM; for `CNCC(=O)N1CCC(NC(=O)[C@H](CC(C)C)NC(=O)NNC(=O)[C@H](Cc2ccccc2)NC(=O)[C@@H](NC(=O)[C@H](CC(N)=O)NC(=O)[C@@H](Cc2ccc3ccccc3c2)NC(=O)[C@@H](Cc2ccc(O)cc2)NC(C)=O)[C@@H](C)O)(C(=O)N[C@@H](Cc2c[nH]c3ccccc23)C(N)=O)CC1` [Compound 393] (Ac-[dY][d2Nal]NTF[azaGly]L[Api](Sar)W-NH2) it is below 10 nM. Turning to `Cc1ccc(CNCC(=O)N2CCC(NC(=O)[C@H](CC(C)C)NC(=O)CN(C)C(=O)[C@H](Cc3ccccc3)NC(=O)CCCCCNC(=O)CN3CCN(CC(=O)O)CCN(CC(=O)O)CCN(CC(=O)O)CC3)(C(=O)N[C@@H](Cc3c[nH]c4ccccc34)C(N)=O)CC2)cc1F` [Compound 12] ({DOTA-Ahx}-F[Sar]L[Api](Gly(N-(3-F-4-Me-benzyl)))W-NH2), the Ki lay within 10 to 100 nM.

One may read the Ki as the dissociation constant of the complex between target and ligand, obtained from inhibition or displacement.
